Holding throughout (experiment): ≥ marks a high value that may be exact or a test limit, other limits are often not marked, values filed in µg/mL are converted to µM
In experiment [1] the test system is Micrococcus luteus IAM 1056.
The subject of experiment [2] is Proteus vulgaris IAM 12542.
Experiment [3] relates to Bacillus cereus IAM 1110.
Experiment [4] concerns Aeromonas hydrophila IAM 12460.
Experiment [5] concerns Escherichia coli K-12 W3110.
Experiment [6] has as its system Bacillus subtilis IAM 1071.
For experiment [7], the system named is Streptococcus sanguinis NY101.
For experiment [8], the system named is Streptococcus mutans UA159.
The subject of experiment [9] is Streptococcus mutans comD.
The test system of experiment [10] is Streptococcus gordonii ATCC 10558.
Experiment [11] has as its system Streptococcus mutans T8.
In experiment [12] the test system is Streptococcus gordonii DL1.
Experiment [13] relates to Streptococcus mutans ATCC 25175.
For experiment [14], the system named is Streptococcus mutans GS-5.
For experiment [15], the system named is Streptococcus sanguinis ATCC 49295.

By MIC is commonly meant the least concentration at which growth counts as inhibited. With `CC[C@H](C)[C@@H]1NC(=O)CNC(=O)[C@@H]2CSSC[C@@H]3NC(=O)[C@H](C(C)C)NC(=O)[C@H](CCCN=C(N)N)NC(=O)[C@H](CCCCN)NC(=O)[C@H](CCCCN)NC(=O)[C@H](CC(N)=O)NC(=O)[C@H](CSSC[C@H](NC(=O)[C@@H](NC(=O)[C@@H](N)Cc4ccccc4)[C@@H](C)O)C(=O)N[C@@H](CC(=O)O)C(=O)N[C@@H](C(C)C)C(=O)N[C@@H](CC(C)C)C(=O)N[C@@H](CO)C(=O)N[C@@H](C(C)C)C(=O)N[C@@H](CCC(=O)O)C(=O)N[C@@H](C)C(=O)N[C@@H](CCCCN)C(=O)NCC(=O)N[C@@H](C(C)C)C(=O)N[C@@H](CCCCN)C(=O)N[C@@H](CC(C)C)C(=O)N[C@@H](CC(N)=O)C(=O)N[C@@H](Cc4cnc[nH]4)C(=O)N[C@@H](C)C(=O)N[C@@H](C)C(=O)N2)NC(=O)[C@H](Cc2ccc(O)cc2)NC(=O)CNC(=O)CNC(=O)[C@H]([C@@H](C)O)NC(=O)[C@H](CCCN=C(N)N)NC(=O)[C@H](CCCN=C(N)N)NC(=O)[C@H](CCCN=C(N)N)NC(=O)[C@H](Cc2ccccc2)NC(=O)[C@H](CC(C)C)NC(=O)[C@H](CSSC[C@@H](C(=O)N[C@@H](CCCN=C(N)N)C(=O)O)NC(=O)[C@H]([C@@H](C)CC)NC3=O)NC(=O)[C@H](Cc2cnc[nH]2)NC1=O` [FTCDVLSVEAKGVKLNHAACGIHCLFRRRTGGYCNKKRVCICR], the MIC in experiment [1] is 0.0665 µM; in experiment [2] it was 2.12 µM; in experiment [3], 4.24 µM; in experiment [4], 2.12 µM; in [5] it was 4.24 µM; in [6] it was 2.12 µM.
For the compound `CC(C)C[C@H](NC(=O)[C@H](CCCN=C(N)N)NC(=O)[C@H](Cc1ccccc1)NC(=O)[C@H](Cc1ccccc1)NC(=O)[C@@H](N)[C@@H](C)O)C(=O)N[C@@H](Cc1ccccc1)C(=O)N[C@@H](CC(N)=O)C(=O)N[C@@H](CCCN=C(N)N)C(=O)O` [TFFRLFNR], the MIC is at least 60 µM in experiment [7]; at least 233 µM in experiment [8]; at least 60 µM in experiment [9]; at least 233 µM in experiment [10]; at least 60 µM in experiment [11]; at least 60 µM in [12]. In addition, the MIC in [13] was at least 60 µM; in experiment [14] it was at least 233 µM; in experiment [15] it was at least 233 µM.

(Values after DBAASP.)
